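Step 1: Grow cells in 96-well plates. Step 2: Expose to compound for 48 hours at 5 concentrations. Step 3: Interpolate endpoints linearly; if unreached, use highest concentration. GI50: concentration for 50% inhibition of growth. TGI: concentration producing complete growth inhibition.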 Where a SMILES comes first, the peptide text is derived from it. The star is where a group is joined. Palmitoyl = CCCCCCCCCCCCCCCC(=O)*
Columns and labels:
Assay in all cases: NCI tumour cell line growth inhibition, 48 h
P388 leukemia = system: P388 leukemia
SN12K1 renal = system: SN12K1 renal
DMS 114 small cell lung = system: DMS 114 small cell lung
DMS 273 small cell lung = system: DMS 273 small cell lung
P388/ADR leukemia = system: P388/ADR leukemia
BT-549 breast = system: BT-549 breast
RXF-631 renal = system: RXF-631 renal
PC-3 prostate = system: PC-3 prostate

SMILES	TGI (BT-549 breast) [µM]	TGI (PC-3 prostate) [µM]	other results
Cn1c(-c2ccccc2)cc(-c2cccs2)c1-c1cccs1	–	–	TGI (P388 leukemia): > 100 µM; TGI (SN12K1 renal): > 41.9 µM; TGI (DMS 114 small cell lung): > 100 µM; TGI (DMS 273 small cell lung): > 100 µM; TGI (P388/ADR leukemia): > 100 µM
C/C(=N/N=C(\[O-])c1ccncc1)C(F)(F)F.C/C(=N\N=C(/[O-])c1ccncc1)C(F)(F)F.[Ni+2]	> 1	–	GI50 (BT-549 breast): > 1 µM
CC(N)Cc1ccc(Cl)c(Cl)c1 (stereo not given)	–	–	TGI (DMS 114 small cell lung): 48.1 µM; TGI (DMS 273 small cell lung): > 71.9 µM
Nc1[nH]c(=O)nc2c1cnn2C1CCCCO1 (stereo not given)	–	–	TGI (DMS 273 small cell lung): > 100 µM; TGI (RXF-631 renal): > 100 µM
CON(C)c1nc(N(C)OC)nc(N(C)OC)n1	–	> 10	–
Cc1cc(C)nc(NS(=O)(=O)c2ccc(NC(=O)c3cccc4c(Nc5ccc(S(=O)(=O)Nc6cc(C)on6)cc5)c5ccccc5nc34)cc2)n1	–	–	TGI (DMS 114 small cell lung): 39.8 µM
CCN1CCC(O)(/C=C/c2ccccc2C)C(C(=O)/C=C/c2ccccc2C)C1 (stereo not given)	6.44	4.05	–
CCCCCCCCCCCCCCCC(=O)N1CCCC1C(=O)NCC(=O)NC(Cc1ccccc1)C(=O)NC(C)C(=O)NC(CO)C(=O)NC(Cc1ccc(O)cc1)C(=O)NC(CCCCN)C(=O)NC(CC(C)C)C(=O)NC(CCCN=C(N)N)C(=O)N1CCCC1C(=O)NCC(N)=O (stereo not given) (Palmitoyl-PGFASYKLRPG-NH2; configuration not given here)	45.3	–	GI50 (BT-549 breast): 21.9 µM
CC1=C(O)C2=C(C(=O)C1=O)[C@@H](C)CC[C@@H]2[C@@H](C)C/C=C/C(C)(C)O	–	> 100	–
C=C(C)C1Cc2c(c3ccccc3n(C)c2=O)O1 (stereo not given)	–	–	TGI (DMS 114 small cell lung): > 100 µM; TGI (RXF-631 renal): > 100 µM
COC(=O)C1=C(OC(=O)/C(=C/c2ccc(Cl)cc2)c2ccc(Cl)cc2)C(C(=O)OC)[C@]2(O)[C@@H](C(=O)OC)[C@H]1C[C@@H](c1ccccc1)[C@@H]2C(=O)OC (stereo not given in full)	> 100	> 100	–
Nc1nc(Nc2ccccc2)c2[nH]cnc2n1	–	> 100	–
COc1cc(C(C)O)c[n+](Cc2ccccc2)c1 (stereo not given)	–	–	TGI (DMS 114 small cell lung): > 100 µM; TGI (DMS 273 small cell lung): > 100 µM; TGI (RXF-631 renal): > 100 µM
COC(=O)c1c(C)n([O-])c2cc(Cl)c(Cl)cc2[n+]1=O	> 100	> 100	–
OCCN(CCO)c1ncnc2nc[nH]c12	> 100	> 100	–
Cc1c(-c2ccccc2)[nH]c2cc(Cl)ccc2c1=O	> 100	–	–
CC(C)C(C(=O)O)N1C(=O)c2ccccc2C1=O (stereo not given)	> 100	> 100	–
c1cnc2c(c1)ccc1cccnc12	> 100	> 100	–
CCOC(=O)c1c(C)n(-c2ccc(Cl)cc2)c2c1cc(O)c1[nH]c3c(c12)CCCC3	> 100	> 100	–
O=C(/C=C/c1ccc(Oc2cc(C(=O)/C=C/c3ccc(O)cc3)c(O)cc2O)cc1)c1ccc(O)cc1O	39.3	24.9	–
CN1C(c2ccccc2)CC(=O)C(N)C1c1ccccc1 (stereo not given)	–	–	TGI (DMS 273 small cell lung): > 61.7 µM
